Laboratory results taken from patent US7384912B2, “Treatment of bone disorders with skeletal anabolic drugs” (Osteotrophin, LLC, priority 2002, dated 2008).
No end group written: not given here.

Experiments:
[1] = molecular target: T1, PTH/PTHrP receptors in human renal cortical membranes (RCM) (Homo sapiens, UniProt Q03431); assay: Competition binding of 125I-(Tyr36)hPTHrP-(1-36)NH2 to human renal cortical membranes; conditions: human RCM, 30° C., 30 min; read-out: Binding (IC50) Kidney membranes
T1 sequence (Q03431 27-593): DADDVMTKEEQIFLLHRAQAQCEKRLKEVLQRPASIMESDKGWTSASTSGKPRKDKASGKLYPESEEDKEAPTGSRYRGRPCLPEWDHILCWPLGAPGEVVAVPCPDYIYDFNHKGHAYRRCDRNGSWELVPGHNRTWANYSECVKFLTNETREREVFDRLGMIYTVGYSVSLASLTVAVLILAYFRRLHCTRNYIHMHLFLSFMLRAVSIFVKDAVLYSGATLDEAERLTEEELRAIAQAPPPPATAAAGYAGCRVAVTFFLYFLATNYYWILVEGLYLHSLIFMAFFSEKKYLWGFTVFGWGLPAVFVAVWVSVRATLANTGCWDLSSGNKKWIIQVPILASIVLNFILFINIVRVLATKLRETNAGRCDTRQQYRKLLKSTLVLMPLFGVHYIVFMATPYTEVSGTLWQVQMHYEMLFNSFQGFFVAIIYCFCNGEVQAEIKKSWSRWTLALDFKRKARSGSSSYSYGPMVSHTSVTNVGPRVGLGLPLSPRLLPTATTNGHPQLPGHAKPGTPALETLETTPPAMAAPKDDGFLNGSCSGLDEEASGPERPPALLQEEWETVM
Description: All steps were performed in the presence of the following protease inhibitors: aprotinin [10 Kallikrein inhibitor units (KIU/ml], pepstatin (5 μg/ml), leupeptin (45 μg/ml), and phenylmethanesulfanylfluoride (10 μg/ml). Normal human kidney cortex was from four separate nephrectomy specimens removed for localized transitional cell carcinoma, renal cell carcinoma, or benign cysts. Renal function in all individuals was normal as assessed by serum creatinine and pyelography. Membranes were pooled, aliquoted, and stored at −70° C. for later use.
Human RCM were added to a final concentration of 90 μg/ml. […] The incubation time of 30 min was used for subsequent equilibrium binding competition studies.
(§1) Statistical differences were assessed by paired and unpaired two-tailed Student's t test.

[2] = system: adenylate cyclase in SaOS-2 membranes; assay: Adenylate cyclase assay in SaOS-2 cell membranes; type: biochemical, human; conditions: 30° C., 30 min
Description: Therefore, dose response curves for each peptide were generated at 30° C. for 10 min in human kidney and 30° C. for 30 min in SaOS-2 membranes. As with the intact cell adenylate cyclase assays, kidney and bone cell membrane adenlyate cyclase assays were performed under binding assay conditions. Results are expresses as percentage of maximal cAMP stimulation in order to compare peptide dose responses from different experiments.
as §1

[3] = system: adenylate cyclase in SaOS-2 intact cells; assay: Adenylate cyclase assay in SaOS-2 intact cells; type: cell-based, human; conditions: 15° C., 60 min
Description: Adenylate cyclase-stimulating activity was examined in confluent SAOS-2 cells as previously described for ROS 17/2.8 cells (Merendino et al., Science 231:388-390, (1986)), with the following modification. The intact cell assay was conducted at 15° C., the same conditions employed for binding to intact SaOS-2 cells (vide supra). […] Dose response curves for each peptide were thus generated using 60 min incubations at 15° C. under binding assay conditions.
as §1

[4] = system: patients with osteoporosis; conditions: cited from earlier work; for increase in lumbar spine bone mineral density: two to three years of administration

SVSEMQLMHNLGEHRHTVERQDWLQMKLQDVHSA-NH2 [cPTH-(1-34)NH2, Chicken PTH-(1-34)amide]
IC50 [1]: 21.5 ± 8.5 nM

CCCC[C@H](NC(=O)[C@H](CO)NC(=O)[C@H](CC(N)=O)NC(=O)[C@H](CC(C)C)NC(=O)[C@H](Cc1c[nH]cn1)NC(=O)[C@H](CCCCN)NC(=O)CNC(=O)[C@H](CC(C)C)NC(=O)[C@H](CC(N)=O)NC(=O)[C@H](Cc1c[nH]cn1)NC(=O)[C@H](CCCC)NC(=O)[C@H](CC(C)C)NC(=O)[C@H](CCC(N)=O)NC(=O)[C@@H](NC(=O)[C@H](CCC(=O)O)NC(=O)[C@H](CO)NC(=O)[C@@H](NC(=O)[C@@H](N)CO)C(C)C)[C@@H](C)CC)C(=O)N[C@@H](CCC(=O)O)C(=O)N[C@@H](CCCNC(=N)N)C(=O)N[C@H](C(=O)N[C@@H](CCC(=O)O)C(=O)N[C@@H](Cc1c[nH]c2ccccc12)C(=O)N[C@@H](CC(C)C)C(=O)N[C@@H](CCCNC(=N)N)C(=O)N[C@@H](CCCCN)C(=O)N[C@@H](CCCCN)C(=O)N[C@@H](CC(C)C)C(=O)N[C@@H](CCC(N)=O)C(=O)N[C@@H](CC(=O)O)C(=O)N[C@H](C(=O)N[C@@H](Cc1c[nH]cn1)C(=O)N[C@@H](CC(N)=O)C(=O)N[C@@H](Cc1ccc(O)cc1)C(=O)O)C(C)C)C(C)C [(Nle^8,18Tyr^34)hPTH-(1-34), (Nle^8,18, Tyr^34)hPTH-(1-34)]
EC50 [2]: 1.9 ± 0.4 nM
EC50 [3]: 2.3 ± 0.4 nM

[Ca+2] [calcium]
increase in lumbar spine bone mineral density [4]: ~2%

PTH(1-84)
hypercalcemia, serum calcium ([4]; doses of approximately 40 micrograms): up to 15 mg/dl

vitamin D
increase in lumbar spine bone mineral density [4]: ~2%

CC(C)C[C@H](NC(=O)[C@H](CCCCN)NC(=O)CNC(=O)[C@H](CC(C)C)NC(=O)[C@@H](NC(=O)[C@@H]1CSSC[C@H](N)C(=O)N[C@@H](CO)C(=O)N[C@@H](CC(N)=O)C(=O)N[C@@H](CC(C)C)C(=O)N[C@@H](CO)C(=O)N[C@@H]([C@@H](C)O)C(=O)N1)C(C)C)C(=O)N[C@@H](CO)C(=O)N[C@@H](CCC(N)=O)C(=O)N[C@@H](CCC(=O)O)C(=O)N[C@@H](CC(C)C)C(=O)N[C@@H](Cc1c[nH]cn1)C(=O)N[C@@H](CCCCN)C(=O)N[C@@H](CC(C)C)C(=O)N[C@@H](CCC(N)=O)C(=O)N[C@H](C(=O)N[C@@H](Cc1ccc(O)cc1)C(=O)N1CCC[C@H]1C(=O)N[C@@H](CCCNC(=N)N)C(=O)N[C@H](C(=O)N[C@@H](CC(N)=O)C(=O)N[C@H](C(=O)NCC(=O)N[C@@H](CO)C(=O)NCC(=O)N[C@H](C(=O)N1CCC[C@H]1C(N)=O)[C@@H](C)O)[C@@H](C)O)[C@@H](C)O)[C@@H](C)O [calcitonin]
increase in lumbar spine bone mineral density [4]: ~2%
